From EPA's ToxValDB 9.5

Key:
Rattus norvegicus [1] = settings: oral
Rattus norvegicus [2] = settings: short-term, duration: 28 days, oral, gavage, F, Sprague-Dawley
[3] = short-term, duration: 1 weeks, diet, M, Wistar, Body Weight: ~32% weight loss
[4] = short-term, duration: 28 days, F, Sprague-Dawley, Body Weight: Decreased body weight gain (21%)
[5] = short-term, duration: 28 days, F, Sprague-Dawley, Hematological: Decreased MCH and MCHC + Immunotoxicological: Decreased phagocytosis by fixed tissue macrophages in the liver
[6] = short-term, duration: 28 days, F, Sprague-Dawley, Hepatic: Single cell necrosis

O=C(O)C(F)(F)C(F)(F)C(F)(F)C(F)(F)C(F)(F)C(F)(F)C(F)(F)C(F)(F)C(F)(F)F [Perfluorodecanoic acid]
LOAEL (Rattus norvegicus [1]; acute, duration: 1 days, gavage, M, Wistar, Body Weight: 8% weight loss was observed 10-days post-exposure): 50 mg/kg-day
NOAEL (Rattus norvegicus [1]; acute, duration: 1 days, gavage, M, Wistar, Neurological: No alteration in performance on novel object recognition test): 50 mg/kg-day
LOAEL (Rattus norvegicus [1]; [3]): 9.5 mg/kg-day
NOAEL (Rattus norvegicus [1]; [3]): 4.7 mg/kg-day
NOAEL (Rattus norvegicus [1]; short-term, duration: 1 weeks, diet, M, Wistar, Hepatic: Increases in liver weight at ?2.4 mg/kg/day / increases in hepatic cholesterol at 9.5 mg/kg/day): 9.5 mg/kg-day
LOAEL (Rattus norvegicus [1]; [4]): 1 mg/kg-day
NOAEL (Rattus norvegicus [1]; [4]): 0.5 mg/kg-day
LOAEL (Rattus norvegicus [1]; [5]): 0.25 mg/kg-day
NOAEL (Rattus norvegicus [1]; [5]): 0.125 mg/kg-day
LOAEL (Rattus norvegicus [1]; [6]): 0.5 mg/kg-day
NOAEL (Rattus norvegicus [1]; [6]): 0.25 mg/kg-day
LOEL (Rattus norvegicus [2]; Clinical chemistry_Alanine aminotransferase): 1.25 mg/kg-day
NOEL (Rattus norvegicus [2]; Clinical chemistry_Albumin): 2.5 mg/kg-day
LOEL (Rattus norvegicus [2]; Clinical chemistry_Albumin/globulin ratio): 0.312 mg/kg-day
LOEL (Rattus norvegicus [2]; Clinical chemistry_Alkaline phosphatase): 0.312 mg/kg-day
LOEL (Rattus norvegicus [2]; Clinical chemistry_Aspartate aminotransferase): 1.25 mg/kg-day
LOEL (Rattus norvegicus [2]; Clinical chemistry_Cholesterol): 2.5 mg/kg-day
LOEL (Rattus norvegicus [2]; Clinical chemistry_Creatinine kinase): 1.25 mg/kg-day
LOEL (Rattus norvegicus [2]; Clinical chemistry_Direct bilirubin): 1.25 mg/kg-day
LOEL (Rattus norvegicus [2]; Clinical chemistry_Free thyroxine): 1.25 mg/kg-day
LOEL (Rattus norvegicus [2]; Clinical chemistry_Globulin): 0.312 mg/kg-day
LOEL (Rattus norvegicus [2]; Clinical chemistry_Indirect bilirubin): 2.5 mg/kg-day
LOEL (Rattus norvegicus [2]; Clinical chemistry_Sorbitol dehydrogenase): 2.5 mg/kg-day
LOEL (Rattus norvegicus [2]; Clinical chemistry_Testosterone): 0.312 mg/kg-day
NOEL (Rattus norvegicus [2]; Clinical chemistry_Thyroid stimulating hormone): 2.5 mg/kg-day
LOEL (Rattus norvegicus [2]; Clinical chemistry_Total bile acids): 1.25 mg/kg-day
LOEL (Rattus norvegicus [2]; Clinical chemistry_Total bilirubin): 1.25 mg/kg-day
NOEL (Rattus norvegicus [2]; Clinical chemistry_Total protein): 2.5 mg/kg-day
NOEL (Rattus norvegicus [2]; Clinical chemistry_Total thyroxine): 2.5 mg/kg-day
LOEL (Rattus norvegicus [2]; Clinical chemistry_Total triiodothyronine): 1.25 mg/kg-day
NOEL (Rattus norvegicus [2]; Clinical chemistry_Triglycerides): 2.5 mg/kg-day
LOEL (Rattus norvegicus [2]; Gene expression_Acox1): 0.156 mg/kg-day
LOEL (Rattus norvegicus [2]; Gene expression_Cyp2b1): 0.156 mg/kg-day
LOEL (Rattus norvegicus [2]; Gene expression_Cyp2b2): 0.156 mg/kg-day
LOEL (Rattus norvegicus [2]; Gene expression_Cyp4a1): 0.625 mg/kg-day
LOEL (Rattus norvegicus [2]; Hematology_Erythrocytes): 1.25 mg/kg-day
LOEL (Rattus norvegicus [2]; Hematology_Hematocrit): 1.25 mg/kg-day
LOEL (Rattus norvegicus [2]; Hematology_Hemoglobin): 1.25 mg/kg-day
LOEL (Rattus norvegicus [2]; Hematology_Mean corpuscular hemoglobin concentration): 2.5 mg/kg-day
LOEL (Rattus norvegicus [2]; Hematology_Mean corpuscular volume): 1.25 mg/kg-day
LOEL (Rattus norvegicus [2]; Hematology_Platelets): 2.5 mg/kg-day
LOEL (Rattus norvegicus [2]; Hematology_Reticulocytes): 1.25 mg/kg-day
LOEL (Rattus norvegicus [2]; Nonneoplastic effects_Bone marrow - Hypocellularity): 2.5 mg/kg-day
NOEL (Rattus norvegicus [2]; Nonneoplastic effects_Forestomach - Epithelium, hyperplasia): 2.5 mg/kg-day
NOEL (Rattus norvegicus [2]; Nonneoplastic effects_Forestomach - Inflammation, chronic active): 2.5 mg/kg-day
NOEL (Rattus norvegicus [2]; Nonneoplastic effects_Kidney - Nephropathy, chronic progressive): 2.5 mg/kg-day
LOEL (Rattus norvegicus [2]; Nonneoplastic effects_Liver - Hepatocyte, Necrosis): 2.5 mg/kg-day
LOEL (Rattus norvegicus [2]; Nonneoplastic effects_Liver - Hepatocyte, cytoplasmic alteration): 0.625 mg/kg-day
LOEL (Rattus norvegicus [2]; Nonneoplastic effects_Liver - Hepatocyte, hypertrophy): 1.25 mg/kg-day
LOEL (Rattus norvegicus [2]; Nonneoplastic effects_Liver - Hepatocyte, vacuolization cytoplasmic): 2.5 mg/kg-day
NOEL (Rattus norvegicus [2]; Nonneoplastic effects_Lymph nodes - Mandibular, atrophy): 2.5 mg/kg-day
NOEL (Rattus norvegicus [2]; Nonneoplastic effects_Lymph nodes - Mesenteric, atrophy): 2.5 mg/kg-day
NOEL (Rattus norvegicus [2]; Nonneoplastic effects_Nose - Olfactory epithelium, degeneration): 2.5 mg/kg-day
NOEL (Rattus norvegicus [2]; Nonneoplastic effects_Nose - Olfactory epithelium, hyperplasia): 2.5 mg/kg-day
NOEL (Rattus norvegicus [2]; Nonneoplastic effects_Nose - Olfactory epithelium, inflammation, suppurative): 2.5 mg/kg-day
NOEL (Rattus norvegicus [2]; Nonneoplastic effects_Nose - Respiratory epithelium, hyperplasia): 2.5 mg/kg-day
NOEL (Rattus norvegicus [2]; Nonneoplastic effects_Nose - Respiratory epithelium, inflammation, chronic active): 2.5 mg/kg-day
NOEL (Rattus norvegicus [2]; Nonneoplastic effects_Spleen - Atrophy): 2.5 mg/kg-day
NOEL (Rattus norvegicus [2]; Nonneoplastic effects_Spleen - Extramedullary hematopoiesis, increased): 2.5 mg/kg-day
LOEL (Rattus norvegicus [2]; Nonneoplastic effects_Thymus - Atrophy): 2.5 mg/kg-day
NOEL (Rattus norvegicus [2]; Nonneoplastic effects_Thymus - Lymphocyte, apoptosis): 2.5 mg/kg-day
NOEL (Rattus norvegicus [2]; Nonneoplastic effects_Thyroid gland - Follicular cell hypertrophy): 2.5 mg/kg-day
LOEL (Rattus norvegicus [2]; Organ weights_Liver - Absolute): 0.156 mg/kg-day
LOEL (Rattus norvegicus [2]; Organ weights_Liver - Relative): 0.156 mg/kg-day
LOEL (Rattus norvegicus [2]; Organ weights_R. adrenal gland - Absolute): 2.5 mg/kg-day
NOEL (Rattus norvegicus [2]; Organ weights_R. adrenal gland - Relative): 2.5 mg/kg-day
LOEL (Rattus norvegicus [2]; Organ weights_R. kidney - Absolute): 2.5 mg/kg-day
LOEL (Rattus norvegicus [2]; Organ weights_R. kidney - Relative): 0.625 mg/kg-day
LOEL (Rattus norvegicus [2]; Organ weights_Spleen - Absolute): 1.25 mg/kg-day
LOEL (Rattus norvegicus [2]; Organ weights_Spleen - Relative): 0.625 mg/kg-day
LOEL (Rattus norvegicus [2]; Organ weights_Thymus - Absolute): 2.5 mg/kg-day
LOEL (Rattus norvegicus [2]; Organ weights_Thymus - Relative): 2.5 mg/kg-day
LOEL (Rattus norvegicus [2]; Organ weights_Thyroid gland - Absolute): 0.312 mg/kg-day
LOEL (Rattus norvegicus [2]; Organ weights_Thyroid gland - Relative): 0.312 mg/kg-day
LOEL (Rattus norvegicus [2]; Reproductive toxicity_Altered estrous cyclicity): 1.25 mg/kg-day
